{"source": "ChEMBL document CHEMBL3232999", "about": "“Computer-aided identification of novel 3,5-substituted rhodanine derivatives with activity against Staphylococcus aureus DNA gyrase” (Bioorg Med Chem, 2014)", "key": {"[1]": {"system": "Staphylococcus aureus", "assay": "Antimicrobial activity against Staphylococcus aureus ATCC 6538 after 24 hrs by two-fold serial dilution method", "format": "functional", "conditions": "ATCC 6538, 24 h"}, "[2]": {"system": "Staphylococcus aureus", "assay": "Antimicrobial activity against methicillin-resistant Staphylococcus aureus ATCC 33592 after 24 hrs by two-fold serial dilution method", "format": "functional", "conditions": "ATCC 33592, 24 h"}, "[3]": {"target": "T1, DNA gyrase (Staphylococcus aureus) (UniProt P0A0K8+P20831)", "T1 sequence (P0A0K8 2-644 limits assumed)": "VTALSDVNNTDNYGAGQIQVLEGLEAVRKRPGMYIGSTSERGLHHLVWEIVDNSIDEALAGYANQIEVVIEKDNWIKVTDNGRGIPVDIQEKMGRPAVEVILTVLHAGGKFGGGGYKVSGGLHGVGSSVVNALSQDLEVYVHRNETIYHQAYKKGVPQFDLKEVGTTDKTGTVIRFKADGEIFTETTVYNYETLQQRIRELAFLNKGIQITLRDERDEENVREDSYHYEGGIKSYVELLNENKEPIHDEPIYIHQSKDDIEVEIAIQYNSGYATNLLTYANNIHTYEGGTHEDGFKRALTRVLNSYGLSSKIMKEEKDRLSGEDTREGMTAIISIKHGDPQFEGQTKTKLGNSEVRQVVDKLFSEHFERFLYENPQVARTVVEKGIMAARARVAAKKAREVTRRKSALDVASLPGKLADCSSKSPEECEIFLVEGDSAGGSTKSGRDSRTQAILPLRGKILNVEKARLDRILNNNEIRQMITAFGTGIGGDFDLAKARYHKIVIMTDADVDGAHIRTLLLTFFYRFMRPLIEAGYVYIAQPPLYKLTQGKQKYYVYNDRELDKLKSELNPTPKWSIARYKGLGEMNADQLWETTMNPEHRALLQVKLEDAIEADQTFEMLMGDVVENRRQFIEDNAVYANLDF", "T1 sequence (P20831 whole entry partner)": "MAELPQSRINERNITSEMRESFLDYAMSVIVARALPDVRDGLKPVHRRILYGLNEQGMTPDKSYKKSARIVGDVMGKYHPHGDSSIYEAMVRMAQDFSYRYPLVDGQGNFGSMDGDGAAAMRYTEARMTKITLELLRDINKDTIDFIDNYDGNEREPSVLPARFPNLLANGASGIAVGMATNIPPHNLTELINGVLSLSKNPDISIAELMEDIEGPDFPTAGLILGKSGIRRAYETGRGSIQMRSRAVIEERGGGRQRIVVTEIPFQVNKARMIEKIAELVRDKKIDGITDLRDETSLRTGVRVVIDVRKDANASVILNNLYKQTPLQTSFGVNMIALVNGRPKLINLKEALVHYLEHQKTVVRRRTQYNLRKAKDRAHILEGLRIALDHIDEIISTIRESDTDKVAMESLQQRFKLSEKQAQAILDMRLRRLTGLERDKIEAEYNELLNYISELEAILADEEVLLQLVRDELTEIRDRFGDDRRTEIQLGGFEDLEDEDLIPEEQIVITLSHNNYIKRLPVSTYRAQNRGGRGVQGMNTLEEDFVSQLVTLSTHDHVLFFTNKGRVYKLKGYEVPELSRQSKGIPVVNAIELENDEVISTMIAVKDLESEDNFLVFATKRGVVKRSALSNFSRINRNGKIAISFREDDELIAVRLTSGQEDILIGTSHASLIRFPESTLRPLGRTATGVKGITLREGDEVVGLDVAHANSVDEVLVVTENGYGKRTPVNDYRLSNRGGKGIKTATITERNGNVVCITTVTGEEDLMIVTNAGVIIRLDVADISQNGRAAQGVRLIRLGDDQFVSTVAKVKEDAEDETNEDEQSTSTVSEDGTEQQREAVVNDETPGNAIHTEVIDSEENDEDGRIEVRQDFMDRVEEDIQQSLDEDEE", "assay": "Inhibition of Staphylococcus aureus DNA gyrase-mediated supercoiling of relaxed DNA using N0471S as substrate at 20 uM after 30 mins by using […] staining-based agarose gel electrophoresis", "format": "protein-complex assay"}, "[4]": {"target": "DNA gyrase subunit B (Staphylococcus aureus) (UniProt P0A0K8)", "sequence (P0A0K8 2-644 limits assumed)": "as the sequence (P0A0K8 2-644 limits assumed) above", "assay": "Inhibition of Staphylococcus aureus DNA gyrase subunit B ATPase activity assessed as consumption of inorganic phosphate at 30 uM by PNP-based absorbance assay relative to control; values are per cent of control"}, "[5]": {"target": "DNA gyrase subunit B (Staphylococcus aureus) (UniProt P0A0K8)", "assay": "Inhibition of Staphylococcus aureus DNA gyrase subunit B ATPase activity assessed as consumption of inorganic phosphate at 100 uM by PNP-based absorbance assay relative to control; values are per cent of control"}, "[6]": {"system": "Staphylococcus aureus", "assay": "Antimicrobial activity against Staphylococcus aureus carolina after 24 hrs by two-fold serial dilution method", "format": "functional"}, "[7]": {"target": "DNA gyrase subunit B (Staphylococcus aureus, UniProt P0A0K8)", "sequence (P0A0K8 whole entry)": "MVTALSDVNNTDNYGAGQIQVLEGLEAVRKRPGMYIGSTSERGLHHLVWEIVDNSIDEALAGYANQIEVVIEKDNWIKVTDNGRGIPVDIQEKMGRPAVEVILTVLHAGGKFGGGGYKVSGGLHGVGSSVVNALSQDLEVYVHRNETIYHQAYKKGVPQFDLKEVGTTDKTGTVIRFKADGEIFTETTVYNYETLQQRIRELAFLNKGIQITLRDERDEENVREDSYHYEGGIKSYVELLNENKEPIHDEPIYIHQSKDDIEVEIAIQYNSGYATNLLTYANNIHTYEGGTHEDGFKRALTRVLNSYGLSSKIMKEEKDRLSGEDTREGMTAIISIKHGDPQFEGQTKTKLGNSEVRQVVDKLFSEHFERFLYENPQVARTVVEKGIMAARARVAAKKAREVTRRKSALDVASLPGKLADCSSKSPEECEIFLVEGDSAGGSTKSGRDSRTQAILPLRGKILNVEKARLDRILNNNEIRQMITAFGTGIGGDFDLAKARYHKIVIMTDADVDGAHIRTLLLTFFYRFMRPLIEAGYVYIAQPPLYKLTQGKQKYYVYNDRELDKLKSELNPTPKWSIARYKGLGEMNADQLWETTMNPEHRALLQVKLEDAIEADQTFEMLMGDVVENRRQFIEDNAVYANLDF", "assay": "Inhibition of Staphylococcus aureus DNA gyrase subunit B ATPase activity assessed as consumption of inorganic phosphate by PNP-based absorbance assay"}, "[8]": {"system": "Staphylococcus aureus", "assay": "Antimicrobial activity against Staphylococcus aureus ISP 794 after 24 hrs by two-fold serial dilution method", "format": "functional", "conditions": "ISP 794, 24 h"}, "[9]": {"target": "DNA gyrase subunit B (Staphylococcus aureus) (UniProt P0A0K8)", "assay": "Inhibition of Staphylococcus aureus DNA gyrase subunit B ATPase activity assessed as consumption of inorganic phosphate at 300 uM by PNP-based absorbance assay relative to control; values are per cent of control"}, "[10]": {"system": "Escherichia coli", "assay": "Inhibition of Escherichia coli DNA gyrase-mediated supercoiling of relaxed DNA using N0471S as substrate after 30 mins by using […] staining-based agarose gel electrophoresis"}, "[11]": {"target": "T1, DNA gyrase (Staphylococcus aureus)", "assay": "Inhibition of Staphylococcus aureus DNA gyrase-mediated supercoiling of relaxed DNA using N0471S as substrate at 160 to 500 uM after 30 mins by using […] staining-based agarose gel electrophoresis", "format": "protein-complex assay"}, "[12]": {"system": "Escherichia coli", "assay": "Antimicrobial activity against Escherichia coli MG1655 after 24 hrs by two-fold serial dilution method", "format": "functional", "conditions": "MG1655, 24 h"}, "[13]": {"target": "DNA gyrase subunit B (Staphylococcus aureus) (UniProt P0A0K8)", "assay": "Inhibition of Staphylococcus aureus DNA gyrase subunit B ATPase activity assessed as consumption of inorganic phosphate at 10 uM by PNP-based absorbance assay relative to control; values are per cent of control"}, "[14]": {"target": "T1, DNA gyrase (Staphylococcus aureus)", "assay": "Inhibition of Staphylococcus aureus DNA gyrase-mediated supercoiling of relaxed DNA using N0471S as substrate at 160 uM after 30 mins by using […] staining-based agarose gel electrophoresis", "format": "protein-complex assay"}}, "note": "Calls of active or inactive are those of the source. No cut-off for these calls is given here."}
{"smiles": "COc1cc([C@@H]2C3=C(CCCC3=O)Nc3[nH]c(SCc4ccccc4Cl)nc(=O)c32)ccc1O", "values": [{"measurement": "MIC", "setting": "[1]", "result": 500, "unit": "µg/mL"}, {"measurement": "MIC", "setting": "[2]", "result": 500, "unit": "µg/mL"}]}
{"smiles": "O=C(O)C[C@H](C(=O)O)N1C(=O)/C(=C\\c2ccc(-c3cc(Cl)ccc3Cl)o2)SC1=S", "values": [{"measurement": "inhibition", "setting": "[3]", "result": "inactive"}, {"measurement": "residual activity", "setting": "[4]", "result": 66, "unit": "%"}, {"measurement": "residual activity", "setting": "[5]", "result": 23, "unit": "%"}, {"measurement": "MIC", "setting": "[6]", "result": 159, "unit": "µM"}, {"measurement": "IC50", "setting": "[7]", "result": 30, "unit": "µM"}, {"measurement": "MIC", "setting": "[8]", "result": 159, "unit": "µM"}, {"measurement": "residual activity", "setting": "[9]", "result": 23, "unit": "%"}, {"measurement": "inhibition", "setting": "[10]", "result": "inactive"}, {"measurement": "inhibition", "setting": "[11]", "result": "Active"}, {"measurement": "MIC", "setting": "[12]", "result": "> 100", "unit": "µg/mL"}, {"measurement": "residual activity", "setting": "[13]", "result": 84, "unit": "%"}]}
{"smiles": "COc1cccc([C@@H]2Nc3c(ccc(C(=O)O)c3C)[C@H]3C=CC[C@H]32)c1", "values": [{"measurement": "MIC", "setting": "[1]", "result": 62.5, "unit": "µg/mL"}, {"measurement": "MIC", "setting": "[2]", "result": 125, "unit": "µg/mL"}]}
{"smiles": "NC(=O)NC(=O)COC(=O)c1ccc(Cl)c(S(=O)(=O)N(Cc2ccccc2)c2ccc(Cl)cc2)c1", "values": [{"measurement": "MIC", "setting": "[1]", "result": 125, "unit": "µg/mL"}, {"measurement": "MIC", "setting": "[2]", "result": 500, "unit": "µg/mL"}]}
{"smiles": "O=C(O)C[C@H](c1ccccc1)N1C(=O)/C(=C/c2ccccc2Cl)SC1=S", "values": [{"measurement": "inhibition", "setting": "[3]", "result": "inactive"}, {"measurement": "residual activity", "setting": "[4]", "result": 76, "unit": "%"}, {"measurement": "residual activity", "setting": "[5]", "result": 52, "unit": "%"}, {"measurement": "MIC", "setting": "[6]", "result": 46.5, "unit": "µM"}, {"measurement": "IC50", "setting": "[7]", "result": 100, "unit": "µM"}, {"measurement": "MIC", "setting": "[8]", "result": 31, "unit": "µM"}, {"measurement": "residual activity", "setting": "[9]", "result": 25, "unit": "%"}, {"measurement": "inhibition", "setting": "[10]", "result": "inactive"}, {"measurement": "MIC", "setting": "[12]", "result": "> 100", "unit": "µg/mL"}, {"measurement": "residual activity", "setting": "[13]", "result": 84, "unit": "%"}]}
{"smiles": "C/C(=N\\NC(=O)c1nnn(-c2nonc2N)c1CN1CCc2ccccc21)c1ccc(O)cc1O", "values": [{"measurement": "MIC", "setting": "[1]", "result": 525, "unit": "µg/mL"}, {"measurement": "MIC", "setting": "[2]", "result": 525, "unit": "µg/mL"}]}
{"smiles": "Cc1cccc(NS(=O)(=O)c2cc(C(N)=O)ccc2Cl)c1C", "values": [{"measurement": "MIC", "setting": "[1]", "result": 62.5, "unit": "µg/mL"}, {"measurement": "MIC", "setting": "[2]", "result": 62.5, "unit": "µg/mL"}]}
{"smiles": "CCOC(=O)C1=c2s/c(=C/c3ccccc3I)c(=O)n2C(N)=C(C#N)[C@@H]1c1ccccc1I", "values": [{"measurement": "MIC", "setting": "[1]", "result": 264, "unit": "µg/mL"}, {"measurement": "MIC", "setting": "[2]", "result": 264, "unit": "µg/mL"}]}
{"smiles": "CC(=O)Oc1ccc([C@@H]2Oc3nc(SCc4ccccc4Cl)nnc3-c3ccccc3N2C(C)=O)cc1Br", "values": [{"measurement": "MIC", "setting": "[1]", "result": 512, "unit": "µg/mL"}, {"measurement": "MIC", "setting": "[2]", "result": 512, "unit": "µg/mL"}]}
{"smiles": "COc1cc([C@H]2OC[C@H]3[C@H]2CO[C@@H]3c2ccc(O)c(OC)c2)ccc1O", "values": [{"measurement": "MIC", "setting": "[1]", "result": 62.5, "unit": "µg/mL"}, {"measurement": "MIC", "setting": "[2]", "result": 500, "unit": "µg/mL"}]}
{"smiles": "COc1ccc(C(=O)C2=C(O)C(=O)N(CCc3c[nH]c4ccccc34)[C@@H]2c2ccccc2Cl)cc1", "values": [{"measurement": "MIC", "setting": "[1]", "result": 253, "unit": "µg/mL"}, {"measurement": "MIC", "setting": "[2]", "result": 253, "unit": "µg/mL"}]}
{"smiles": "CCc1ccccc1N1C(=O)/C(=C/c2cccc(O)c2)SC1=S", "values": [{"measurement": "MIC", "setting": "[6]", "result": 27, "unit": "µM"}, {"measurement": "MIC", "setting": "[8]", "result": 13.5, "unit": "µM"}, {"measurement": "inhibition", "setting": "[10]", "result": "inactive"}, {"measurement": "inhibition", "setting": "[14]", "result": "Active"}, {"measurement": "MIC", "setting": "[12]", "result": "> 100", "unit": "µg/mL"}]}
{"smiles": "Cc1cccc([C@]2(C)CC(C)(C)N(C(=O)CSc3nc[nH]n3)c3ccccc32)c1", "values": [{"measurement": "MIC", "setting": "[1]", "result": 125, "unit": "µg/mL"}, {"measurement": "MIC", "setting": "[2]", "result": 500, "unit": "µg/mL"}]}
{"smiles": "COc1ccc(N(CC(=O)Nc2ccccc2C(N)=O)S(=O)(=O)c2ccccc2)c(OC)c1", "values": [{"measurement": "MIC", "setting": "[1]", "result": 62.5, "unit": "µg/mL"}, {"measurement": "MIC", "setting": "[2]", "result": 250, "unit": "µg/mL"}]}
{"smiles": "CO[C@@H]1[C@@H](OC(N)=O)[C@@H](O)[C@H](Oc2ccc3c(O)c(NC(=O)c4ccc(O)c(CC=C(C)C)c4)c(=O)oc3c2C)OC1(C)C", "note": "[NOVOBIOCIN]", "values": [{"measurement": "MIC", "setting": "[6]", "result": "< 1.27", "unit": "µM"}, {"measurement": "MIC", "setting": "[8]", "result": "< 1.27", "unit": "µM"}, {"measurement": "inhibition", "setting": "[10]", "result": "inactive"}, {"measurement": "MIC", "setting": "[2]", "result": "< 1.95", "unit": "µg/mL"}]}
{"smiles": "O=C1C[C@H](c2cccc(O)c2)Nc2ccc3ccccc3c21", "values": [{"measurement": "MIC", "setting": "[1]", "result": 62.5, "unit": "µg/mL"}, {"measurement": "MIC", "setting": "[2]", "result": 62.5, "unit": "µg/mL"}]}
